Experimental data as given in patent publication US9045468B2, “2,5-methano- and 2,5-ethano-tetrahydrobenzazepine derivatives and use thereof to block reuptake of norepinephrine, dopamine, and serotonin” (Albany Molecular Research, Inc., priority 2010, dated 2015).

Experiments:
[1] = target: hSERT (Homo sapiens (Human), UniProt P31645); assay: SERT radioligand binding assay ([125I]RTI-55, HEK-293 membranes); conditions: recombinant HEK-293 membranes, [125I]RTI-55; read-out: Binding Affinity (IC50, nM) SERT
Chain of hSERT (P31645 whole entry): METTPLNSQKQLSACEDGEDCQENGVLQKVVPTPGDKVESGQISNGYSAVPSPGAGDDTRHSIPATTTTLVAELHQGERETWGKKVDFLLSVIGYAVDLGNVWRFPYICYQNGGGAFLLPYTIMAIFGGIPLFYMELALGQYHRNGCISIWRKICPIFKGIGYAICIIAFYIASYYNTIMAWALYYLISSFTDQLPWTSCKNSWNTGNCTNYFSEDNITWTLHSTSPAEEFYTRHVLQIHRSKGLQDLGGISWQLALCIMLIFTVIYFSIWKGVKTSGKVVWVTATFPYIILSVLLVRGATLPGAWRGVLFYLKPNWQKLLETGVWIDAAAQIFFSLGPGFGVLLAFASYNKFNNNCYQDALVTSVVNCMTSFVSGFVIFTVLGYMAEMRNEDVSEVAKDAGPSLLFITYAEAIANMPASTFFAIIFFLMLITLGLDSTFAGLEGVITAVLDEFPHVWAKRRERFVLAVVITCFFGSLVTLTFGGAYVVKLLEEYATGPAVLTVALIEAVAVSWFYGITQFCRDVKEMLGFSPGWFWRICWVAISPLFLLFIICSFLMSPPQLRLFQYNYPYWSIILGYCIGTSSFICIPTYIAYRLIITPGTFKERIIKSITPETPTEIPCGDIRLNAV
Experimental: (§1) The medium was removed from the flasks and the cells rinsed with HBSS without Ca and without Mg. The cells were then incubated for 5-10 minutes in 10 mM Tris-Cl, pH 7.5, 5 mM EDTA before the cells were lifted with a combination of pipetting and scraping, as needed. The cell suspension was collected into centrifuge bottles and homogenized for 30 seconds with a Polytron homogenizer. The suspension was centrifuged for 30 minutes at 32,000×g, 4° C. The supernatant was decanted and the pellet resuspended and homogenized in 50 mM Tris-Cl, pH 7.5, 1 mM EDTA for 10 seconds. The suspension was then centrifuged again for 30 minutes at 32,000×g, 4° C. The supernatant was decanted and the pellet resuspended in 50 mM Tris-Cl, pH 7.5, 1 mM EDTA and briefly homogenized. A Bradford assay (Bio-rad) was performed and the membrane preparation diluted to 2 mg/ml with 50 mM Tris-Cl, pH 7.5, 1 mM EDTA. Aliquots were prepared, and then frozen and stored at −80° C.
Compounds were dissolved in 100% DMSO at a concentration 100 times the desired highest assay concentration, serially diluted 1:3 in 100% DMSO, and 0.4 μl/well of each solution was dispensed to a Nunc polypropylene, round bottom, 384-well plate. […] The contents of the assay plate were then transferred to a Millipore MultiscreenHTS GF/B filter plate which was pretreated with 0.5% PEI for at least one hour. The plate was vacuum filtered and washed with 7 washes of […] 50 mM Tris-Cl, pH 7.5, 120 mM NaCl, 5 mM KCl chilled to 4° C. The filtration and washing were completed in less than 90 seconds. The plates were air-dried overnight, 12 μl/well of MicroScint scintillation fluid added, and the plates counted in a Trilux.
(§2) Each plate was run in triplicate, and the concentration response curve thus generated was fit using the four-parameter dose response equation, Y=Bottom+(Top-Bottom)/(1+10^((Log IC50−X)*HillSlope)) in order to determine the IC50 value for each compound. The radioligand concentration chosen for each assay corresponds to the Kd concentration determined through saturation binding analysis for each assay.

[2] = target: hDAT (Homo sapiens (Human), UniProt Q01959); assay: DAT radioligand binding assay ([125I]RTI-55, HEK-293 membranes); conditions: recombinant HEK-293 membranes, [125I]RTI-55; read-out: Binding Affinity (IC50, nM) DAT
Chain of hDAT (Q01959 whole entry): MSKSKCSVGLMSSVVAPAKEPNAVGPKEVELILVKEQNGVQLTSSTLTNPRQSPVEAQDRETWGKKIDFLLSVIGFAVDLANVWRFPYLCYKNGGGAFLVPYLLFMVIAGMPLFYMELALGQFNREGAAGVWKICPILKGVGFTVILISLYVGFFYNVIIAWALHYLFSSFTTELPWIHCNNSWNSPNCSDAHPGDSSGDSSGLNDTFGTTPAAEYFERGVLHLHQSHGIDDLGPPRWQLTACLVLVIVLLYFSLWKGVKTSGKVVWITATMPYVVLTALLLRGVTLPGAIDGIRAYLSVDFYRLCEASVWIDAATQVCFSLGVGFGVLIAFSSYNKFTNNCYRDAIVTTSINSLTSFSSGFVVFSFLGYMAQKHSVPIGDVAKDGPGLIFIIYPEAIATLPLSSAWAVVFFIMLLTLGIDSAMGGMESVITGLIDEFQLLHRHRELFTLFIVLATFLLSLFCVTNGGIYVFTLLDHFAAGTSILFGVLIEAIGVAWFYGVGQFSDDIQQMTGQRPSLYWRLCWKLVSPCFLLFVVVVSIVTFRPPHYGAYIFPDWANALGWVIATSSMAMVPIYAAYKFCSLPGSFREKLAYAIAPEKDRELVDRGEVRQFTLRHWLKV
Experimental: as §1, with “Recombinant HEK-293 cells expressing either the hSERT, hDAT, or hNET proteins were harvested from T-175 flasks as follows. The medium” for “The medium”
Compounds were dissolved in 100% DMSO at a concentration 100 times the desired highest assay concentration, serially diluted 1:3 in 100% DMSO, and 0.4 μl/well of each solution was dispensed to a Nunc polypropylene, round bottom, 384-well plate. […] 20 ul/well of a 2× membrane preparation (12.5 μg/ml in 30 mM sodium phosphate buffer, pH 7.9 at 4° C.) and 20 μl/well of a 2× radioligand solution (250 pM [^125I]RTI-55 in 30 mM sodium phosphate buffer, pH 7.9 at 4° C.) were added to the well and the reaction incubated for 1 hour at room temperature. The contents of the assay plate were then transferred to a Millipore MultiscreenHTS GF/B filter plate which was pretreated with 0.5% PEI for at least one hour. The plate was vacuum-filtered and washed with 7 washes of 100 μl/well 50 mM Tris-Cl, pH 7.5, 120 mM NaCl, 5 mM KCl chilled to 4° C. The filtration and washing were completed in less than 90 seconds. The plates were air-dried overnight, 12 μl/well of MicroScint scintillation fluid added, and the plates counted in a Trilux.
as §2

[3] = target: hNET (Homo sapiens (Human), UniProt P23975); assay: NET radioligand binding assay ([3H]nisoxetine, HEK-293 membranes); conditions: recombinant HEK-293 membranes, [3H]nisoxetine; read-out: Binding Affinity (IC50, nM) NET
Chain of hNET (P23975 whole entry): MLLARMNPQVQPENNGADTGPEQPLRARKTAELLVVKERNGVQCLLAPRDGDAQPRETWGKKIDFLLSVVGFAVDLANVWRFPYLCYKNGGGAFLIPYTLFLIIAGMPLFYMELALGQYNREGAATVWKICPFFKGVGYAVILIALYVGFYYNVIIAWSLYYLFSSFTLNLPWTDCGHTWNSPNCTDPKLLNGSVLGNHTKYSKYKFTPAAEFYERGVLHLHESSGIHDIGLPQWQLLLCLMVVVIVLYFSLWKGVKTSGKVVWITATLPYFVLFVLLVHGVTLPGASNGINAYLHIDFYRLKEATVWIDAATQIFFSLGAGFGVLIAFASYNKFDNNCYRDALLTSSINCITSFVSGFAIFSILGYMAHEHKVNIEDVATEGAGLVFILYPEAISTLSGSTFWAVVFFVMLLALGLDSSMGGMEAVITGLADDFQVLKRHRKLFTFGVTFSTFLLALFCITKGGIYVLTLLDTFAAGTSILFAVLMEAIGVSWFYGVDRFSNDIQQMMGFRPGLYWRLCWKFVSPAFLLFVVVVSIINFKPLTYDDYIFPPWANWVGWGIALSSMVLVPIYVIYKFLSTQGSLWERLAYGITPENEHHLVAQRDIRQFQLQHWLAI
Experimental: as §1
Compounds were dissolved in 100% DMSO at a concentration 100 times the desired highest assay concentration, serially diluted 1:3 in 100% DMSO, and 1.0 μl/well of each solution was dispensed to a Nunc polypropylene, round bottom, 384-well plate. […] 50 μl/well of a 2× membrane preparation (0.4 mg/ml in 50 mM Tris-Cl, pH 7.5, 120 mM NaCl, 5 mM KCl) and 50 μl/well of a 2× radioligand solution (4 nM [^3H]nisoxetine in 50 mM Tris-Cl, pH 7.5, 120 mM NaCl, 5 mM KCl) were added to the well and the reaction incubated for 1 hour at room temperature. The contents of the assay plate were then transferred to a Millipore MultiscreenHTS GF/B filter plate which was pretreated with 0.5% PEI for at least one hour. The plate was vacuum filtered and washed with 7 washes of 100 μl/well 50 mM Tris-Cl, pH 7.5, 120 mM NaCl, 5 mM KCl chilled to 4° C. The filtration and washing were completed in less than 90 seconds. The plates were air-dried overnight, 12 μl/well of MicroScint scintillation fluid added, and the plates counted in a Trilux.
as §2

Row | Compound | IC50 [1] | IC50 [2] | IC50 [3]
1 | FC(F)(F)c1ccc(C23CCN(CC2)Cc2cc(Oc4ccc(C(F)(F)F)nn4)ccc23)cc1 [Example 50, 2,5-ethano-5-(4-(trifluoromethyl)phenyl)-8-(6-(trifluoromethyl)pyridazin-3-yloxy)-2,3,4,5-tetrahydro-1H-benzo[c]azepine] | 10.9 nM | 614 nM | 1050 nM
2 | Clc1ccc(C23CCN(Cc4cc(-c5ccc6ncnn6c5)ccc42)C3)cc1 (single isomer, unassigned) [3(+), 8-([1,2,4]triazolo[1,5-a]pyridin-6-yl)-5-(4-chlorophenyl)-2,5-methano-2,3,4,5-tetrahydro-1H-benzo[c]azepine] | 9.4 nM | 340 nM | 817 nM
3 | CCS(=O)(=O)N1CCN(c2ccc3c(c2)CN2CCC3(c3ccc(Cl)cc3)CC2)CC1 [Example 30, 5-(4-chlorophenyl)-8-(4-(ethylsulfonyl)piperazin-1-yl)-2,5-ethano-2,3,4,5-tetrahydro-1H-benzo[c]azepine] | 10 nM | 13.6 nM | 55.8 nM
4 | Clc1ccc(C23CCN(CC2)Cc2cc(OCCCc4ccncc4)ccc23)cc1 [Example 35, 5-(4-chlorophenyl)-2,5-ethano-8-(3-(pyridin-4-yl)propoxy)-2,3,4,5-tetrahydro-1H-benzo[c]azepine] | 4.2 nM | 205 nM | 54.8 nM
5 | c1cc(C23CCN(CC2)Cc2cc(N4CCOCC4)ccc23)ccc1N1CCOCC1 [Example 29, 4-(2,5-ethano-5-(4-morpholinophenyl)-2,3,4,5-tetrahydro-1H-benzo[c]azepin-8-yl)morpholine] | 328 nM | 5260 nM | 5460 nM
6 | Fc1ccc(C23CCN(CC2)Cc2cc(Oc4ccc(C(F)(F)F)nn4)ccc23)cc1 [Example 52, 5-(4-fluorophenyl)-2,5-ethano-8-(6-(trifluoromethyl)pyridazin-3-yloxy)-2,3,4,5-tetrahydro-1H-benzo[c]azepine] | 8.9 nM | 42.8 nM | 206 nM
7 | Cc1cc2ncnn2cc1-c1ccc2c(c1)CN1CCC2(c2ccc(Cl)c(Cl)c2)CC1 [Example 43, 5-(3,4-dichlorophenyl)-2,5-ethano-8-(7-methyl-[1,2,4]triazolo[1,5-a]pyridin-6-yl)-2,3,4,5-tetrahydro-1H-benzo[c]azepine] | 18.9 nM | 43.8 nM | 373 nM
8 | Clc1ccc(C23CCN(CC2)Cc2cc(N4CCOCC4)ccc23)cc1 [Example 28, 4-(5-(4-chlorophenyl)-2,5-ethano-2,3,4,5-tetrahydro-1H-benzo[c]azepin-8-yl)morpholine] | 8 nM | 58.9 nM | 438 nM
9 | FC(F)(F)c1ccc(Oc2ccc3c(c2)CN2CCC3(c3cccc(Cl)c3)CC2)nn1 [Example 49, 5-(3-chlorophenyl)-2,5-ethano-8-(6-(trifluoromethyl)pyridazin-3-yloxy)-2,3,4,5-tetrahydro-1H-benzo[c]azepine] | 24.2 nM | 55.9 nM | 451 nM
10 | Fc1ccc(C23CCN(Cc4cc(-c5ccc(C(F)(F)F)nn5)ccc42)C3)cc1Cl (single isomer, unassigned) [56(−), 5-(3-chloro-4-fluorophenyl)-2,5-methano-8-(6-(trifluoromethyl)pyridazin-3-yl)-2,3,4,5-tetrahydro-1H-benzo[c]azepine] | 57.8 nM | 243 nM | 798 nM
11 | CCS(=O)(=O)N1CCN(c2ccc(C34CCN(CC3)Cc3cc(N5CCN(S(=O)(=O)CC)CC5)ccc34)cc2)CC1 [Example 31, 8-(4-(ethylsulfonyl)piperazin-1-yl)-5-(4-(4-(ethylsulfonyl)piperazin-1-yl)phenyl)-2,5-ethano-2,3,4,5-tetrahydro-1H-benzo[c]azepine] | 2320 nM | 4020 nM | 8300 nM
12 | FC(F)Oc1ccc(-c2ccc3c(c2)CN2CCC3(c3ccc(Cl)cc3)C2)nn1 (single isomer, unassigned) [6(+), 5-(4-chlorophenyl)-8(6-(difluoromethoxy)pyridazin-3-yl)-2,5-methano-2,3,4,5-tetrahydro-1H-benzo[c]azepine] | 19.3 nM | 1060 nM | 1170 nM
13 | Clc1ccc(C23CCN(CC2)Cc2cc(Oc4cnccn4)ccc23)cc1 [Example 33, 5-(4-chlorophenyl)-2,5-ethano-8-(pyrazin-2-yloxy)-2,3,4,5-tetrahydro-1H-benzo[c]azepine] | 6.1 nM | 116 nM | 910 nM
14 | Clc1ccc(C23CCN(CC2)Cc2cc(-c4ccc5ncnn5c4)ccc23)cc1Cl [Example 37, 8-([1,2,4]triazolo[1,5-a]pyridin-6-yl)-5-(3,4-dichlorophenyl)-2,5-ethano-2,3,4,5-tetrahydro-1H-benzo[c]azepine] | 8.6 nM | 18.5 nM | 119 nM
15 | Clc1ccc(C23CCN(CC2)Cc2cc(-c4cncnc4)ccc23)cc1 [Example 16, 5-(4-chlorophenyl)-2,5-ethano-8-(pyrimidin-5-yl)-2,3,4,5-tetrahydro-1H-benzo[c]azepine] | 7.3 nM | 156 nM | 2930 nM
16 | O=c1n(-c2ccc3c(c2)CN2CCC3(c3ccc(Cl)cc3)CC2)nc2ccccn12 [Example 23, 2-(5-(4-chlorophenyl)-2,5-ethano-2,3,4,5-tetrahydro-1H-benzo[c]azepin-8-yl)-[1,2,4]triazolo[4,3-a]pyridin-3(2H)-one] | 1.5 nM | 37.5 nM | 176 nM
17 | O=c1[nH]c2ccc(-c3ccc4c(c3)CN3CCC4(c4ccc(Cl)c(Cl)c4)C3)cc2o1 (single isomer, unassigned) [11(−), 8-(2-oxo-2,3-dihydrobenzo[d]oxazol-6-yl)-5-(3,4-dichlorophenyl)-2,5-methano-2,3,4,5-tetrahydro-1H-benzo[c]azepine] | 3.9 nM | 19.6 nM | 92.4 nM
